Data as given in paper PMC7558399, “In Vitro Selective Growth-Inhibitory Activities of Phytochemicals, Synthetic Phytochemical Analogs, and Antibiotics against Diarrheagenic/Probiotic Bacteria and Cancer/Normal Intestinal Cells” (Pharmaceuticals, 2020).
In brackets after ≈: the same amount, converted by molar mass. Read-outs that look alike come from different tables or passages of the source.

Key:
Format in all cases: cell-based
[1] = system: Shigella flexneri (ATCC 12022); assay: microbe, parasite or virus in culture; conditions: ATCC12022
[2] = system: FHs 74 Int (ATCC CCL 241) intestinal normal cells; assay: MTT cytotoxicity assay, FHs 74 Int; conditions: FHs 74 Int (intestinal normal cells), MTT, 72 h; for IC50 / IC80: FHs74Int; for IC50: read-out: IC50 ± SD; for IC80: read-out: IC80 ± SD (80% inhibitory concentration of proliferation)
[3] = system: E. coli 0175:H7 (NCTC 12900); assay: microbe, parasite or virus in culture; conditions: Escherichia coli, NCTC12900
[4] = system: Bifidobacterium bifidum (ATCC 29521); assay: Broth microdilution MIC, B. bifidum
[5] = system: Yersinia enterocolitica (ATCC 9610); assay: Broth microdilution MIC, Y. enterocolitica; conditions: read-out: MIC
[6] = system: Clostridium perfringens (DSMZ 11778); assay: microbe, parasite or virus in culture; conditions: DSMZ11778
[7] = system: Listeria monocytogenes (ATCC 7644); assay: Broth microdilution MIC, L. monocytogenes
[8] = system: Bifidobacterium breve (ATCC 15700); assay: Broth microdilution MIC, B. breve; conditions: ATCC15700, growth inhibited by ≥80%, read-out: MIC
[9] = system: Lactobacillus reuteri (CCM 3625); assay: Broth microdilution MIC, L. reuteri; conditions: Limosilactobacillus reuteri, CCM3625
[10] = system: probiotic bacteria (9 strains); assay: Broth microdilution MIC, probiotic bacteria as a group (mean or range over strains); conditions: read-out: x¯ -PB ± SD: mean MIC for probiotic bacteria
[11] = system: diarrheagenic bacteria (12 strains); assay: organism not typed
[12] = system: Bifidobacterium adolescentis (DSMZ 20087); assay: Broth microdilution MIC, B. adolescentis
[13] = system: Bifidobacterium longum ssp. longum (DSMZ 20219); assay: Broth microdilution MIC, B. longum ssp. longum; conditions: DSMZ20219; Bifidobacterium longum ssp. longum; growth inhibited by ≥80%; read-out: MIC
[14] = system: Caco-2 (ATCC HTB 37) intestinal cancer cells; assay: MTT cytotoxicity assay, Caco-2; conditions: Homo sapiens, Caco-2, MTT, 72 h; for IC50: read-out: IC50 ± SD; for IC80: read-out: IC80 ± SD (80% inhibitory concentration of proliferation)
[15] = system: Escherichia coli (ATCC 25922); assay: Broth microdilution MIC, E. coli
[16] = system: Lactobacillus rhamnosus (CCM 7091); assay: Broth microdilution MIC, L. rhamnosus; conditions: Lacticaseibacillus rhamnosus, CCM7091
[17] = system: Enterococcus faecalis (ATCC 29212); assay: Broth microdilution MIC, E. faecalis
[18] = system: HT29 (ATCC HTB 38) intestinal cancer cells; assay: MTT cytotoxicity assay, HT29; conditions: Homo sapiens, HT-29, HT29, MTT, 72 h; for IC50: read-out: IC50 ± SD; for IC80: read-out: IC80 ± SD (80% inhibitory concentration of proliferation)
[19] = system: Vibrio parahaemolyticus (ATCC 17802); assay: Broth microdilution MIC, V. parahaemolyticus; conditions: ATCC17802, growth inhibited by ≥80%, read-out: MIC
[20] = system: Bacteroides fragilis (ATCC 25285); assay: Broth microdilution MIC, B. fragilis
[21] = system: intestinal cancer cells (HT29 and Caco-2); assay: MTT cytotoxicity assay, mean for intestinal cancer cells; conditions: for IC50: mean of HT29 and Caco-2, >512 replaced with 1024, read-out: x¯ -CC ± SD: mean IC50 for intestinal cancer cells; for IC80: read-out: x¯ -CC ± SD: mean IC80 for intestinal cancer cells
[22] = system: Bacillus cereus (ATCC 14579); assay: Broth microdilution MIC, B. cereus; conditions: median/mode, read-out: MIC
[23] = system: Lactobacillus casei (DSMZ 20011); assay: Broth microdilution MIC, L. casei; conditions: Lacticaseibacillus casei, DSMZ20011, Lactobacillus casei, read-out: MIC
[24] = system: Bifidobacterium animalis spp. lactis (DSMZ 10140); assay: Broth microdilution MIC, B. animalis spp. lactis; conditions: DSMZ10140
[25] = system: Clostridium difficile (DSMZ 12056); assay: microbe, parasite or virus in culture; conditions: Clostridioides difficile, DSMZ12056
[26] = system: S. enterica ssp. enterica serovar Typhimurium (ATCC 14028); assay: Broth microdilution MIC, Salmonella Typhimurium
[27] = system: Salmonella enterica ssp. enterica serovar Enteritidis (ATCC 13076); assay: Broth microdilution MIC, Salmonella Enteritidis
[28] = ATCC29521, growth inhibited by ≥80%, read-out: MIC
[29] = ATCC9610, growth inhibited by ≥80%
[30] = ATCC7644, growth inhibited by ≥80%, read-out: MIC
[31] = Lactobacillus reuteri, growth inhibited by ≥80%, read-out: MIC
[32] = mean of 9 strains, >512 replaced with 1024
[33] = mean of 12 strains, >512 replaced with 1024, read-out: x¯ -DB ± SD: mean MIC for diarrheagenic bacteria
[34] = DSMZ20087, growth inhibited by ≥80%, read-out: MIC
[35] = ATCC25922, growth inhibited by ≥80%, read-out: MIC
[36] = Lactobacillus rhamnosus, growth inhibited by ≥80%, read-out: MIC
[37] = ATCC29212, growth inhibited by ≥80%, read-out: MIC
[38] = ATCC25285, growth inhibited by ≥80%, read-out: MIC
[39] = Bifidobacterium animalis spp. lactis, growth inhibited by ≥80%, read-out: MIC

Structure (SMILES)	MIC [1] [µg/mL]	IC50 [2] [µg/mL]	IC80 [2] [µg/mL]	MIC [3] [µg/mL]	MIC [4, 28] [µg/mL]	MIC [5, 29] [µg/mL]	MIC [6] [µg/mL]	MIC [7, 30] [µg/mL]	MIC [8] [µg/mL]	MIC [9, 31] [µg/mL]	MIC [10, 32] [µg/mL]	MIC [11, 33] [µg/mL]	MIC [12, 34] [µg/mL]	MIC [13] [µg/mL]	IC50 [14] [µg/mL]	IC80 [14] [µg/mL]	MIC [15, 35] [µg/mL]	MIC [16, 36] [µg/mL]	MIC [17, 37] [µg/mL]	MIC [19] [µg/mL]	also measured
Cc1ncc([N+](=O)[O-])n1CCO [MA, metronidazole]	> 512	> 512	> 512	> 512	> 512	> 512	8 (≈ 46.7 µM)	512 (≈ 2990 µM)	32 (≈ 187 µM)	256 (≈ 1500 µM)	385 ± 458 (≈ 2250 µM)	651 ± 459 (≈ 3810 µM)	64 (≈ 374 µM)	8 (≈ 46.7 µM)	> 512	> 512	0.062 (≈ 0.362 µM)	> 512	> 512	> 512	IC50 ± SD [2]: - (Not active (MIC/IC50/80 > 512 μg/mL, the value 1024 μg/mL was used for average calculation)); IC80 ± SD (80% inhibitory concentration of proliferation) [2]: - (Not active (MIC/IC50/80 > 512 μg/mL, the value 1024 μg/mL was used for average calculation)); MIC ([11]; both clostridial species tested, read-out: MICs): 0.5 to 8 µg/mL (≈ 2.92 to 46.7 µM); IC50 [18]: > 512 µg/mL; IC80 [18]: > 512 µg/mL; MIC [20, 38]: 0.5 µg/mL (≈ 2.92 µM); IC50 [21]: > 512 µg/mL; IC80 [21]: > 512 µg/mL; MIC ([22]; ATCC14579, […]): 128 µg/mL (≈ 748 µM); MIC ([23]; growth inhibited by ≥80%): > 512 µg/mL; MIC [24, 39]: 32 µg/mL (≈ 187 µM); MIC ([25]; Clostridium difficile, […], read-out: MIC): 0.5 µg/mL (≈ 2.92 µM)
O=C(OC[C@H]1O[C@@H](OC(=O)c2cc(O)c(O)c(OC(=O)c3cc(O)c(O)c(O)c3)c2)[C@H](OC(=O)c2cc(O)c(O)c(OC(=O)c3cc(O)c(O)c(O)c3)c2)[C@@H](OC(=O)c2cc(O)c(O)c(OC(=O)c3cc(O)c(O)c(O)c3)c2)[C@@H]1OC(=O)c1cc(O)c(O)c(OC(=O)c2cc(O)c(O)c(O)c2)c1)c1cc(O)c(O)c(OC(=O)c2cc(O)c(O)c(O)c2)c1 [TA, tannic acid]	> 512	–	–	512 (≈ 301 µM)	–	–	512 (≈ 301 µM)	–	256 (≈ 150 µM)	–	–	779 ± 307 (≈ 458 µM)	–	128 (≈ 75.2 µM)	–	–	–	–	–	128 (≈ 75.2 µM)	MIC [26]: > 512 µg/mL; MIC ([4]; ATCC29521): > 512 µg/mL; MIC ([5]; ATCC9610, […]): 512 µg/mL (≈ 301 µM); MIC ([7]; ATCC7644): > 512 µg/mL; MIC [27]: > 512 µg/mL; MIC [9]: 512 µg/mL (≈ 301 µM); MIC [10]: 725 ± 352 µg/mL (≈ 426 µM); MIC ([12]; DSMZ20087): > 512 µg/mL; MIC ([15]; ATCC25922): > 512 µg/mL; MIC [16]: > 512 µg/mL; MIC ([17]; ATCC29212): > 512 µg/mL; MIC ([20]; ATCC25285): > 512 µg/mL; MIC ([22]; ATCC14579, […]): 512 µg/mL (≈ 301 µM); MIC ([23]; […]): 512 µg/mL (≈ 301 µM); MIC ([24]; Bifidobacterium animalis): > 512 µg/mL; MIC [25]: > 512 µg/mL
CN(C)[C@@H]1C(O)=C(C(N)=O)C(=O)[C@@]2(O)C(O)=C3C(=O)c4c(O)cccc4[C@@](C)(O)[C@H]3C[C@@H]12 [TC, tetracycline]	2 (≈ 4.5 µM)	14.7 ± 2.3 (≈ 33.1 µM)	108 ± 5 (≈ 243 µM)	4 (≈ 9 µM)	16 (≈ 36 µM)	2 (≈ 4.5 µM)	32 (≈ 72 µM)	2 (≈ 4.5 µM)	16 (≈ 36 µM)	32 (≈ 72 µM)	19.8 ± 19 (≈ 44.6 µM)	–	64 (≈ 144 µM)	2 (≈ 4.5 µM)	70.4 ± 15 (≈ 158 µM)	> 512	1 (≈ 2.25 µM)	8 (≈ 18 µM)	4 (≈ 9 µM)	1 (≈ 2.25 µM)	MIC ([26]; Salmonella Typhimurium, growth inhibited by ≥80%, read-out: MIC): 4 µg/mL (≈ 9 µM); MIC ([27]; Salmonella Enteritidis, growth inhibited by ≥80%, read-out: MIC): 4 µg/mL (≈ 9 µM); MIC ([11]; read-out: MICs): 1 to 4 µg/mL (≈ 2.25 to 9 µM); MIC ([11]; read-out: x¯ -DB ± SD: mean MIC for diarrheagenic bacteria): 4.8 ± 8 µg/mL (≈ 10.8 µM); IC50 [18]: 393 ± 20 µg/mL (≈ 884 µM); IC80 [18]: > 512 µg/mL; MIC [20, 38]: 0.5 µg/mL (≈ 1.13 µM); IC50 [21]: 232 ± 161 µg/mL (≈ 521 µM); IC80 [21]: > 512 µg/mL; MIC ([22]; ATCC14579, growth inhibited by ≥80%): 0.5 µg/mL (≈ 1.13 µM); MIC ([23]; growth inhibited by ≥80%): 8 µg/mL (≈ 18 µM); MIC [24, 39]: 32 µg/mL (≈ 72 µM)
